Laboratory results taken from ChEMBL document CHEMBL3351528, “Targeting dopamine D3 and serotonin 5-HT1A and 5-HT2A receptors for developing effective antipsychotics: synthesis, biological characterization, and behavioral studies” (J Med Chem, 2014).

Tests used:
D(2) dopamine receptor = D(2) dopamine receptor (Homo sapiens, UniProt P14416)
Description: Binding affinity to dopamine D2 receptor (unknown origin)

[1] = target: 5-hydroxytryptamine receptor 2A (Homo sapiens, UniProt P28223)
Description: Binding affinity to 5HT2A receptor (unknown origin)

D(3) dopamine receptor = D(3) dopamine receptor (Homo sapiens, UniProt P35462)
Description: Binding affinity to dopamine D3 receptor (unknown origin)

[2] = target: T1, 5-hydroxytryptamine receptor 1A (Homo sapiens, UniProt P08908)
T1 sequence (P08908 whole entry): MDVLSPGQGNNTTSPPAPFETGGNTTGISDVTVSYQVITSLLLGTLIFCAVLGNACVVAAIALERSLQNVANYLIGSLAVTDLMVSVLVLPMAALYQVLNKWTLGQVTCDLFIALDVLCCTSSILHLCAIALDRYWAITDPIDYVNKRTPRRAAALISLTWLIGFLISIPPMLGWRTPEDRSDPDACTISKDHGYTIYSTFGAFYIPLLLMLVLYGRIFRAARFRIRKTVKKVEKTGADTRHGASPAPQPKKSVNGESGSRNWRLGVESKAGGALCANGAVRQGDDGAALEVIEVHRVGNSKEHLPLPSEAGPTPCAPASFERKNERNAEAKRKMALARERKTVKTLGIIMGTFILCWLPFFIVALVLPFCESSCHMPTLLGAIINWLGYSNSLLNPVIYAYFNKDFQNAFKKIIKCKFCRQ
Description: Binding affinity to 5HT1A receptor (unknown origin)

[3] = target: T2, 5-hydroxytryptamine receptor 2C (Homo sapiens, UniProt P28335)
T2 sequence (P28335 whole entry): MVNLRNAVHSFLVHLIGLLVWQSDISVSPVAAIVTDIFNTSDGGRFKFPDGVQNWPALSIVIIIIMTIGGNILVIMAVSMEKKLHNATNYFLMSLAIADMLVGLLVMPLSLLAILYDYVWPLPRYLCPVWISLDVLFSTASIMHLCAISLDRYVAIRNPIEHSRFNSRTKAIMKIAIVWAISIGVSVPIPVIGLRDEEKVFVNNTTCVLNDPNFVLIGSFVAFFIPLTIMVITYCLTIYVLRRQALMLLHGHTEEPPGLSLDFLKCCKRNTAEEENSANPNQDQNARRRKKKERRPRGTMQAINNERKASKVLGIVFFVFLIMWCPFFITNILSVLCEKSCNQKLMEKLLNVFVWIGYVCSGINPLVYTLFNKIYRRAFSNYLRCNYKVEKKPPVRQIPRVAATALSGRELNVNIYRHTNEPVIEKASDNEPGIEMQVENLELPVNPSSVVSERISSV
Description: Binding affinity to 5HT2C receptor (unknown origin)

Mus musculus [4] = assay: Antipsychotic-like activity in sc dosed NMRI mouse assessed as reduction in MK801-induced locomotor activity dosed 15 to 30 mins before administration of MK801 measured for 60 mins; assay type: functional; details: read-out: MED
Mus musculus [5] = species on record: Mus musculus; details: in vivo, sc, 0.5 h
Description: Effect on spontaneous exploratory locomotor activity in sc dosed NMRI mouse measured for 30 mins with activity counts each 5 mins

Mus musculus [6] = species on record: Mus musculus; assay: animal or person; details: NMRI, sc; for minimal effective dose: read-out: MED
Description: Antipsychotic-like activity in sc dosed NMRI mouse assessed as reduction in methamphetamine-induced locomotor activity dosed 15 to 30 mins before administration of methamphetamine measured for 60 mins

Mus musculus [7] = species on record: Mus musculus; assay: animal or person; details: NMRI, sc, read-out: MED
Description: Antipsychotic-like activity in sc dosed NMRI mouse assessed as reduction in PCP-induced locomotor activity dosed 15 to 30 mins before administration of methamphetamine measured for 60 mins

Mus musculus [8] = assay: Toxicity in NMRI mouse assessed as induction of tremors at 30 mg/kg, sc dosed 30 mins before test; assay type: organism-based; set-up: dose 30 mg/kg, route subcutaneous; details: in vivo, 0.5 h
Mus musculus [9] = assay: Effect on spontaneous exploratory locomotor activity in orally dosed NMRI mouse measured for 30 mins with activity counts each 5 mins; assay type: ADME, organism-based; details: in vivo, po, 0.5 h
Mus musculus [10] = assay: Antipsychotic-like activity in orally dosed NMRI mouse assessed as reduction in MK801-induced locomotor activity dosed 15 to 30 mins before administration of MK801 measured for 60 mins; assay type: functional; details: po, read-out: MED

Sequence of 5-hydroxytryptamine receptor 2A (P28223 whole entry): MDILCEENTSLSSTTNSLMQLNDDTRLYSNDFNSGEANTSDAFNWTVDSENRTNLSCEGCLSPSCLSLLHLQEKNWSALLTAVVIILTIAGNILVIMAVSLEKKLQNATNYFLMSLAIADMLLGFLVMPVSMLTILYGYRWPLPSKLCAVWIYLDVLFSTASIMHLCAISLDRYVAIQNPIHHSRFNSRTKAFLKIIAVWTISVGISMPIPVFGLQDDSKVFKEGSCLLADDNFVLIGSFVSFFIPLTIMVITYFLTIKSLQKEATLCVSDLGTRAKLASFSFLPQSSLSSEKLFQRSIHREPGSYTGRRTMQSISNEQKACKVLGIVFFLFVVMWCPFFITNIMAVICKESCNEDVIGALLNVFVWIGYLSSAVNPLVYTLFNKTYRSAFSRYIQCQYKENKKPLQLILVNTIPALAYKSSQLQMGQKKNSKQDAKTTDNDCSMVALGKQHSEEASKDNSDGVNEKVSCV
Sequence of D(3) dopamine receptor (P35462 whole entry): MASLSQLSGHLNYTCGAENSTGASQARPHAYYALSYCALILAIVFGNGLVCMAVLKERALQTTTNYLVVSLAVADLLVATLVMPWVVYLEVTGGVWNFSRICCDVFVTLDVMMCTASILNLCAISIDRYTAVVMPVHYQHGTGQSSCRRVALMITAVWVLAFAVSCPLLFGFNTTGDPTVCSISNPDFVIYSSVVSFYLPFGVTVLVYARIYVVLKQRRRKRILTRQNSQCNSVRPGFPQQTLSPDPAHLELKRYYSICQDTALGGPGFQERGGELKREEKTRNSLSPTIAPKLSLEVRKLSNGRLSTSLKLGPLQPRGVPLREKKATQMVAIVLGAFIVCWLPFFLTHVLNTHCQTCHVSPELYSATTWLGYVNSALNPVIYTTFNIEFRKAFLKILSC
Sequence of D(2) dopamine receptor (P14416 whole entry): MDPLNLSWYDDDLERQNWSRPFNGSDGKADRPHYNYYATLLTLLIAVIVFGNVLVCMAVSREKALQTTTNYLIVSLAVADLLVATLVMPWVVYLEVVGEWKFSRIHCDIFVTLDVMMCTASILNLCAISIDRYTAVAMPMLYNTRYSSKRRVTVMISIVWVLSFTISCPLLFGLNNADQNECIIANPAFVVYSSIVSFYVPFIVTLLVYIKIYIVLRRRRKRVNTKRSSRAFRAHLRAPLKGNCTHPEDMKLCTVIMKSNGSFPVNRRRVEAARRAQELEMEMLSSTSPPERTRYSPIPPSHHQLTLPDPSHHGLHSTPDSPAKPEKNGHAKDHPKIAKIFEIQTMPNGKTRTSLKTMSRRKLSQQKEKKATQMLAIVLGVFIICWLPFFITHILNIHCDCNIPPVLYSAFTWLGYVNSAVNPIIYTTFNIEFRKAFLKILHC

SMILES	Ki (D(2) dopamine receptor) [nM]	Ki [1] [nM]	Ki (D(3) dopamine receptor) [nM]	Ki [2] [nM]	Ki [3] [nM]	minimal effective dose (Mus musculus [4]) [mg/kg]	MED (Mus musculus [5]) [mg/kg]	minimal effective dose (Mus musculus [6]) [mg/kg]	minimal effective dose (Mus musculus [7]) [mg/kg]	ED50 (Mus musculus [5]) [mg/kg]	ED50 (Mus musculus [6]) [mg/kg]	Activity (Mus musculus [8])	MED (Mus musculus [9]) [mg/kg]	minimal effective dose (Mus musculus [10]) [mg/kg]
O=C(NCCCCN1CCN(c2cccc(F)c2)CC1)c1cc2ccccc2cn1	160	11	3	11	230									
O=C(NCCCCN1CCN(c2ccccc2)CC1)[C@@H]1CCc2ccccc2N1	> 1000	22	45	85	> 1000									
COc1cccc(N2CCN(CCCCNC(=O)c3ccccc3)CC2)n1	> 1000	110	55	6	> 1000	3	10	0.3	10					
O=C(NCCCCN1CCN(c2ccccn2)CC1)c1ccc2ccccc2n1	> 1000	69	186	24	> 1000									
O=C(NCCCCN1CCN(c2ccccc2)CC1)c1cccnc1	> 1000	216	62	85	> 1000									
Cc1cccc(N2CCN(CCCCNC(=O)c3cc4ccccc4o3)CC2)c1		15.3		11.9	206									
Cc1cccc(N2CCN(CCCCNC(=O)[C@@H]3CCc4ccccc4N3)CC2)c1	> 1000	5.1	159	43	73.4									
COc1cccc(N2CCN(CCCCNC(=O)c3cc4ccccc4n3C)CC2)c1	219	311	1.7	10	311									
O=C(NCCCCN1CCN(c2ccc(O)cc2)CC1)c1cc2ccccc2cn1	> 1000	17	24	> 1000	400									
O=C(NCCCCN1CCN(c2ccccc2)CC1)[C@H]1CCc2ccccc2N1	> 1000	50	73	9.9	> 1000									
O=C(NCCCCN1CCN(c2ccccc2)CC1)c1ccccn1	> 1000	100	144	52	> 1000		3	1	> 3					
COc1cccc(N2CCN(CCCCNC(=O)c3ccccn3)CC2)n1	> 1000	140	200	8	43		> 3	3	3					
O=C(NCCCCN1CCN(c2ccccc2F)CC1)c1cc2ccccc2o1	76	18	0.3	15	79									
COc1cccc(N2CCN(CCCCNC(=O)c3ccccn3)CC2)c1	> 1000	179	214	36	> 1000									
O=C(NCCCCN1CCN(Cc2ccccc2)CC1)c1cc2ccccc2o1	> 1000	> 1000	560	> 1000	> 1000									
O=C(NCCCCN1CCN(c2ccccc2)CC1)c1ccc2ccccc2n1	> 1000	98	61	94	475									
COc1cccc(N2CCN(CCCCNC(=O)c3cc4ccccc4o3)CC2)c1	> 1000	40	8.8	17	173									
Cc1cccc(N2CCN(CCCCNC(=O)[C@H]3CCc4ccccc4N3)CC2)c1	3410	77	122	117	450									

SMILES	Ki (D(2) dopamine receptor) [nM]	Ki [1] [nM]	Ki (D(3) dopamine receptor) [nM]	Ki [2] [nM]	Ki [3] [nM]	minimal effective dose (Mus musculus [4]) [mg/kg]	MED (Mus musculus [5]) [mg/kg]	minimal effective dose (Mus musculus [6]) [mg/kg]	minimal effective dose (Mus musculus [7]) [mg/kg]	ED50 (Mus musculus [5]) [mg/kg]	ED50 (Mus musculus [6]) [mg/kg]	Activity (Mus musculus [8])	MED (Mus musculus [9]) [mg/kg]	minimal effective dose (Mus musculus [10]) [mg/kg]
O=C(CCCN1CCC(O)(c2ccc(Cl)cc2)CC1)c1ccc(F)cc1 [HALOPERIDOL]										0.08	0.09			
Cc1cccc(N2CCN(CCCCNC(=O)c3cc4ccccc4cn3)CC2)n1	> 1000	28	46	2	57									
O=C(NCCCCN1CCN(c2ccccn2)CC1)c1cc2ccccc2cn1	5600	822	41	16	1350									
Cc1cccc(N2CCN(CCCCNC(=O)c3cc4ccccc4o3)CC2)c1C	85	3.6	0.4	4	17	30						Toxic		
O=C(NCCCCN1CCN(c2cccc(C(F)(F)F)c2)CC1)c1cc2ccccc2[nH]1	53	4	0.2	1.9	22									
O=C(NCCCCN1CCN(c2cnc3ccccc3c2)CC1)c1ccccc1	1	> 1000	40	> 1000	> 1000									
Cc1cccc(N2CCN(CCCCNC(=O)c3ccc4ccccc4n3)CC2)c1	> 1000	17	53	18	74	10	10	≤ 1	> 10			Toxic		
Cc1cccc(N2CCN(CCCCNC(=O)c3ccccn3)CC2)n1	> 1000	240	> 1000	3	> 1000									
Cc1cccc(N2CCN(CCCCNC(=O)c3cc4ccccc4o3)CC2)n1	> 1000	27	24	2	61									
Cc1cccc(N2CCN(CCCCNC(=O)c3ccccc3)CC2)n1	> 1000	83	73	3	> 1000		> 3	1	> 3					
O=C(NCCCCN1CCN(c2cnc3ccccc3c2)CC1)c1cc2ccccc2cn1	> 1000	1000	14	> 1000	479									
COc1cccc(N2CCN(CCCCNC(=O)c3c[nH]c4ccccc34)CC2)c1	> 1000	164	40	59	602									
COc1cccc(N2CCN(CCCCNC(=O)c3cccc(C)n3)CC2)c1	> 1000	238	27	44	> 1000									
O=C(NCCCCN1CCN(c2ncccn2)CC1)c1cc2ccccc2cn1	> 1000	1230	204	67	> 1000									
COc1cccc(N2CCN(CCCCNC(=O)c3ccc4ccccc4n3)CC2)c1	> 1000	70	31	26	155									
O=C(NCCCCN1CCN(c2ccccc2)CC1)c1cc2ccccc2cn1	> 1000	40	12	26	> 1000	3	10	≤ 1	3					
O=C(NCCCCN1CCN(c2ccc(F)cc2)CC1)c1cc2ccccc2cn1	> 1000	8	16	73	300								60	60
O=C(NCCCCN1CCN(c2cccc3ccccc23)CC1)c1ccccc1	58	3	0.9	0.7	6									
